Reference: patent publication US20230017045A1, “PYRIDINE AND PYRIMIDINE CARBOXYLATE HERBICIDES AND METHODS OF USE THEREOF” (Dow AgroSciences LLC, priority 2017, published 2023)
Read-outs that look alike come from different tables or passages of the source.

Tested on: test plant species
Test: Post-emergent herbicidal activity test (greenhouse, foliar spray, visual growth reduction)
Format: in vivo
Settings: post-emergence, 336 h, 140 g ai/ha
Summary of the method: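 Scoring used a 0 to 100 percent visual scale of growth reduction against solvent-treated controls, read 14 d after spraying. Applications went onto plants at first or second true leaf stage, 187 L/ha, with crop oil concentrate and X-77 surfactant in the carrier. Post-treatment watering was by subirrigation to avoid wash-off.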

[1] = ALOMY: blackgrass (Alopecurus myosuroides), 14 days after application, read-out: Visual Growth Reduction (%) 14 Days After Application, ALOMY
[2] = AMARE: redroot pigweed (Amaranthus retroflexus), 14 days after application, read-out: Visual Growth Reduction (%) 14 Days After Application, AMARE
[3] = AVEFA: wild oat (Avena fatua), 14 days after application, read-out: Visual Growth Reduction (%) 14 Days After Application, AVEFA
[4] = CHEAL: lambsquarters (Chenopodium album), 14 days after application, read-out: Visual Growth Reduction (%) 14 Days After Application, CHEAL
[5] = CIRAR: canada thistle (Cirsium arvense), 14 days after application, read-out: Visual Growth Reduction (%) 14 Days After Application, CIRAR
[6] = CYPES: yellow nutsedge (Cyperus esculentus), 14 days after application, read-out: Visual Growth Reduction (%) 14 Days After Application, CYPES
[7] = DIGSA: crabgrass (Digitaria sanguinalis), 14 days after application, read-out: Visual Growth Reduction (%) 14 Days After Application, DIGSA
[8] = ECHCG: barnyardgrass (Echinochloa crus-galli), 14 days after application, read-out: Visual Growth Reduction (%) 14 Days After Application, ECHCG
[9] = IPOHE: ivy-leaf morning glory (Ipomoea hederacea), 14 days after application, read-out: Visual Growth Reduction (%) 14 Days After Application, IPOHE
[10] = KCHSC: kochia (Bassia scoparia), 14 days after application, read-out: Visual Growth Reduction (%) 14 Days After Application, KCHSC
[11] = ORYSA: rice (Oryza sativa), 14 days after application, read-out: Visual Growth Reduction (%) 14 Days After Application, ORYSA
[12] = SETFA: giant foxtail (Setaria faberi), 14 days after application, read-out: Visual Growth Reduction (%) 14 Days After Application, SETFA
[13] = SORVU: grain sorghum (Sorghum vulgare), 14 days after application, read-out: Visual Growth Reduction (%) 14 Days After Application, SORVU
[14] = STEME: common chickweed (Stellaria media), 14 days after application, read-out: Visual Growth Reduction (%) 14 Days After Application, STEME
[15] = TRZAS: wheat, spring (Triticum aestivum), 14 days after application, read-out: Visual Growth Reduction (%) 14 Days After Application, TRZAS
[16] = blackgrass (Alopecurus myosuroides), 14 Days After Application, read-out: Visual Growth Reduction (%) ALOMY
[17] = canada thistle (Cirsium arvense), 14 Days After Application, read-out: Visual Growth Reduction (%) CIRAR
[18] = crabgrass (Digitaria sanguinalis), 14 Days After Application, read-out: Visual Growth Reduction (%) DIGSA
[19] = lambsquarters (Chenopodium album), 14 Days After Application, read-out: Visual Growth Reduction (%) CHEAL
[20] = redroot pigweed (Amaranthus retroflexus), 14 Days After Application, read-out: Visual Growth Reduction (%) AMARE
[21] = wild oat (Avena fatua), 14 Days After Application, read-out: Visual Growth Reduction (%) AVEFA
[22] = yellow nutsedge (Cyperus esculentus), 14 Days After Application, read-out: Visual Growth Reduction (%) CYPES

Structure (SMILES)	pest or weed control at 140 g/ha [1] [%]	pest or weed control at 140 g/ha [2] [%]	pest or weed control at 140 g/ha [3] [%]	pest or weed control at 140 g/ha [4] [%]	pest or weed control at 140 g/ha [5] [%]	pest or weed control at 140 g/ha [6] [%]	pest or weed control at 140 g/ha [7] [%]	pest or weed control at 140 g/ha [8] [%]	pest or weed control at 140 g/ha [9] [%]	pest or weed control at 140 g/ha [10] [%]	pest or weed control at 140 g/ha [11] [%]	pest or weed control at 140 g/ha [12] [%]	pest or weed control at 140 g/ha [13] [%]	pest or weed control at 140 g/ha [14] [%]	pest or weed control at 140 g/ha [15] [%]	pest or weed control at 140 g/ha [16] [%]	pest or weed control at 140 g/ha [17] [%]	pest or weed control at 140 g/ha [18] [%]	pest or weed control at 140 g/ha [19] [%]	pest or weed control at 140 g/ha [20] [%]	further results
COC(=O)c1nc(-c2ccc(C(F)(F)F)nc2)c(O)cc1Cl [F87, methyl 5-chloro-3-hydroxy-6′-(trifluoromethyl)-[2,3′-bipyridine]-6-carboxylate]	0 to 29	0 to 29	0 to 29	0 to 29	0 to 29	0 to 29	0 to 29	0 to 29	0 to 29	0 to 29	0 to 29	0 to 29	0 to 29	0 to 29	0 to 29	–	–	–	–	–	–
COC(=O)c1nc(-c2ccc(C(F)(F)F)c(/C=N/N(C)C)c2Cl)ccc1Cl [F142, Methyl (E)-3-chloro-6-(2-chloro-3-((2,2-dimethylhydrazono)methyl)-4-(trifluoromethyl)phenyl)picolinate]	0 to 29	60 to 74	0 to 29	30 to 44	0 to 29	0 to 29	0 to 29	0 to 29	60 to 74	0 to 29	0 to 29	0 to 29	60 to 74	0 to 29	0 to 29	–	–	–	–	–	–
COc1cc(C(F)(F)F)ccc1-c1ncc(Cl)c(C(=O)O)n1 [F366, 5-Chloro-2-(2-methoxy-4-(trifluoromethyl)phenyl)pyrimidine-4-carboxylic acid]	–	–	–	–	–	–	–	75 to 84	95 to 100	0 to 29	0 to 29	75 to 84	75 to 84	0 to 29	0 to 29	0 to 29	30 to 44	75 to 84	85 to 94	75 to 84	pest or weed control at 140 g/ha [21]: 0 to 29%; pest or weed control at 140 g/ha [22]: 0 to 29%
O=C(O)c1nc(-c2ccc(C(F)(F)F)cc2Cl)ccc1F [F132, 6-(2-Chloro-4-(trifluoromethyl)phenyl)-3-fluoropicolinic acid]	0 to 29	95 to 100	0 to 29	95 to 100	85 to 94	0 to 29	75 to 84	60 to 74	95 to 100	75 to 84	0 to 29	75 to 84	85 to 94	0 to 29	0 to 29	–	–	–	–	–	–
COC(=O)c1nc(-c2cc3c(cc2Cl)OCO3)c(F)cc1Cl [F150, Methyl 3-chloro-6-(6-chlorobenzo[d] [1,3]oxol-5-yl)-5-fluoropicolinate]	0 to 29	75 to 84	0 to 29	75 to 84	85 to 94	0 to 29	0 to 29	0 to 29	85 to 94	45 to 59	0 to 29	30 to 44	0 to 29	0 to 29	0 to 29	–	–	–	–	–	–
O=C(O)c1nc(-c2cc3c(cc2Cl)OC(F)(F)O3)c(Cl)cc1Cl [F182, 3,5-Dichloro-6-(6-chloro-2,2-difluorobenzo[d][1,3]dioxol-5-yl)picolinic acid]	0 to 29	75 to 84	0 to 29	85 to 94	0 to 29	30 to 44	60 to 74	0 to 29	95 to 100	45 to 59	0 to 29	60 to 74	85 to 94	0 to 29	0 to 29	–	–	–	–	–	–
COC(=O)c1nc(-c2ccc(Cl)c(C(F)F)c2Cl)ccc1Cl [F281, Methyl 3-chloro-6-(2,4-dichloro-3-(difluoromethyl)phenyl)picolinate]	–	–	–	–	–	–	–	0 to 29	85 to 94	0 to 29	0 to 29	30 to 44	85 to 94	0 to 29	0 to 29	0 to 29	0 to 29	0 to 29	85 to 94	75 to 84	pest or weed control at 140 g/ha [21]: 0 to 29%; pest or weed control at 140 g/ha [22]: 0 to 29%
COC(=O)c1nc(-c2cc(F)c3c(c2)OC(F)(F)O3)ccc1Cl [F367, Methyl 3-chloro-6-(2,2,7-trifluorobenzo[d][1,3]dioxol-5-yl)picolinate]	–	–	–	–	–	–	–	0 to 29	95 to 100	0 to 29	0 to 29	0 to 29	0 to 29	0 to 29	0 to 29	0 to 29	0 to 29	75 to 84	0 to 29	0 to 29	pest or weed control at 140 g/ha [21]: 0 to 29%; pest or weed control at 140 g/ha [22]: 0 to 29%
O=C(O)c1nc(-c2ccc(Cl)c3c2OC(F)(F)O3)ccc1Cl [F67, 3-Chloro-6-(7-chloro-2,2-difluorobenzo[d] [1,3]dioxol-4-yl) picolinic acid]	0 to 29	45 to 59	0 to 29	0 to 29	0 to 29	0 to 29	0 to 29	0 to 29	0 to 29	0 to 29	0 to 29	0 to 29	0 to 29	–	–	–	–	–	–	–	–
COC(=O)c1nc(-c2ccc(OC(F)(F)F)cc2Cl)ccc1Cl [F58, Methyl 3-chloro-6-(2-chloro-4-(trifluoromethoxy)phenyl)picolinate]	30 to 44	95 to 100	45 to 59	60 to 74	95 to 100	0 to 29	85 to 94	0 to 29	95 to 100	30 to 44	0 to 29	75 to 84	85 to 94	–	–	–	–	–	–	–	–
